Assay results reported in patent US20050123603A1, “Natural menaquinone 7 compositions” (Natural ASA, priority 2003, published 2005).

Key:
[1] = tested on: under-carboxylated osteocalcin (ucOC); assay: serum under-carboxylated osteocalcin (ucOC) during 6-week supplementation; assay type: in vivo, human
Method: (§1) An open study was conducted in which 12 volunteers were randomized in two groups receiving either 180 μg MK-7 (menaquinone 7, 0.27 μmol) or 150 μg K1 (0.33 μmol) per day. The MK-7 was obtained from 2 nattoK2 capsules (Natural ASA) per day, the K1 from a pharmacological preparation (Roche). The supplements were taken at 18.00 h of each day during the 6-week study period. Blood was taken between 08.00 and 09.00 h of days 0 (baseline), 3, 7, 14, 21, 28, 35, and 42. A non-treated control group (n=3) served as a reference group, with blood drawings on days 0, 14, 28, and 42.
(§2) Measurements: vitamin K1, MK-7, under-carboxylated osteocalcin (ucOC) and carboxylated osteocalcin (cOC).
(§3) Study population: 6 men and 6 women, aged 55-60 (women postmenopausal). Non-treated controls: 1 man, 2 women in the same age range.

[2] = tested on: carboxylated osteocalcin (cOC); assay: serum carboxylated osteocalcin (cOC) during 6-week supplementation; assay type: in vivo, human; conditions: 6-week daily supplementation, K1 150 μg or 180 μg MK-7 from nattoK2, FIG. 8
Method: as §1, §2, §3

osteocalcin [3] = assay: vitamin K status of bone, cOC/ucOC ratio, during 6-week supplementation; assay type: in vivo, human
Method: as §1, §2, §3
(§4) These values are needed to calculate the vitamin K-status in bone (the ratio cOC/ucOC) and to estimate the bone metabolic activity (cOC+ucOC). Here a remarkable difference between the effects of K1 and nattoK2 (i.e.: MK-7) was found: whereas cOC was increased by K1 supplementation, it was decreased by nattoK2. The importance of this finding will become clear from FIGS. 9 and 10.

[4] = serum vitamin K (K1, MK-7) during 6-week daily supplementation with nattoK2 capsules or K1; assay type: in vivo, human
Method: as §1, §2, §3
MK-7 and K1 have different molecular weights (650 and 450, respectively). Therefore, all doses and concentrations were calculated on a molar basis. Since the daily dose of MK-7 from natto was 18% lower than that from K1 (0.27 and 0.33 μmol/day, respectively), it should be kept in mind that the expected results for natto capsules are similarly lower compared to those for K1. […] The normal ranges for K1 and MK-7 in non-treated subjects are between 500 and 1000 pmol/L (FIG. 5C). […] Due to the limited number of participants, the mean baseline levels in the various groups may differ.

osteocalcin [5] = assay: bone turnover measured as ucOC+cOC during 6-week supplementation; assay type: in vivo, human
Method: as §1, §2, §3, §4

bone loss = conditions: postmenopausal women, intervention studies; cited from earlier work

CC1=C(C/C=C(\C)CCC[C@H](C)CCC[C@H](C)CCCC(C)C)C(=O)c2ccccc2C1=O [K1]
time to reach decreased ucOC value ([1]; K1 150 μg per day): within three days | serum ucOC after treatment ([1]; K1 150 μg per day, value reached within three days): 1.7 µg/L | serum ucOC at baseline ([1]; K1 group): 2.1 µg/L | treatment-induced change in serum carboxylated osteocalcin (cOC) [2]: increased | time to plateau levels of the cOC/ucOC ratio (osteocalcin [3]; K1 supplementation): 3 days | serum K1 level, plateau value ([4]; K1 150 μg (0.33 μmol) per day, blood taken about 15 h after intake, mean): around 2000 pmol/L | serum K1 level at 15 h after ingestion ([4]; K1 150 μg per day): near-baseline levels | time to plateau of serum K1 ([4]; K1 150 μg per day): within the first three days | increase in total vitamin K status relative to baseline (mean plateau value) ([4]; K1 150 μg per day, 6 weeks, FIG. 6): 1500 pmol/L | serum K1 level at baseline ([4]; K1 group, day 0, mean): 816 pmol/L | bone turnover measured as ucOC+cOC, end of regimen (osteocalcin [5]; K1 150 μg per day, 6 weeks): 5.33 | bone turnover measured as ucOC+cOC, start of regimen (osteocalcin [5]; K1 group): 5.28 | lower rate of bone loss in supplemented groups (bone loss): 40%

CC(C)=CCC/C(C)=C/CC/C(C)=C/CC/C(C)=C/CC/C(C)=C/CC/C(C)=C/CC/C(C)=C/CC1=C(C)C(=O)c2ccccc2C1=O [menaquinone 7, (all-E)-2-(3,7,11,15,19,23,27-Heptamethyl-2,6,10,14,18,22,26-octacosaheptaenyl)-3-methyl-1,4-naphthalenedione]
time at which mean cOC/ucOC ratio crosses the K1 curve (osteocalcin [3]; menaquinone 7 supplementation, ratio increased gradually, no levelling off): 5 week
